Laboratory results taken from patent US20240400986A1, “MEMBRANE BOUND COMPOSITIONS AND METHODS RELATING TO SAME” (FLAGSHIP PIONEERING INNOVATIONS VII, LLC, priority 2021, published 2024).
Read-outs that look alike come from different tables or passages of the source.

Key:
[1] = system: cardiomyocytic cell line derived from human ventricular heart tissue; assay: Small molecule compound screen of gigasome production in cardiomyocytic monocultures; settings: for downregulation of gigasome production: doses 10-10,000 nM, 24 h;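 for all read-outs here: gigasomes shed into the culture medium were imaged by confocal microscopy and counted as round particles lacking nuclear signal, extrapolated to the whole well, fold change is relative to DMSO vehicle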
[2] = system: neuronal cell line derived from human neuroblastoma; assay: Small molecule compound screen of gigasome production in neuronal monocultures; settings: neuronal cells; for Fold Change of Gigasomes Produced vs. DMSO / Number of Gigasomes Produced: 24 hours
[3] = Table 22, dose 10 nM, cardiomyocytes, 24 hours
[4] = Table 22, dose 100 nM, cardiomyocytes, 24 hours
[5] = Table 22, dose 1000 nM, cardiomyocytes, 24 hours
[6] = Table 22, dose 10000 nM, cardiomyocytes, 24 hours
[7] = Table 23 (down-regulators), dose 10 nM, cardiomyocytes
[8] = Table 23 (down-regulators), dose 100 nM, cardiomyocytes
[9] = Table 23 (down-regulators), dose 1000 nM, cardiomyocytes
[10] = Table 23 (down-regulators), dose 10000 nM, cardiomyocytes

SMILES | Number of Gigasomes Produced [1, 3] | Fold Change of Gigasomes Produced vs. DMSO [1, 5] | Number of Gigasomes Produced [1, 5] | Number of Gigasomes Produced ([2]; dose 100 nM) | Number of Gigasomes Produced ([2]; dose 1000 nM) | Number of Gigasomes Produced ([2]; dose 10000 nM) | Fold Change of Gigasomes Produced vs. DMSO [1, 7] | Number of Gigasomes Produced [1, 7] | Fold Change of Gigasomes Produced vs. DMSO [1, 8] | Number of Gigasomes Produced [1, 8] | Fold Change of Gigasomes Produced vs. DMSO [1, 9] | Number of Gigasomes Produced [1, 9] | Fold Change of Gigasomes Produced vs. DMSO [1, 10] | Number of Gigasomes Produced [1, 10] | also measured
C[C@H](NC(=O)Cc1cc(F)cc(F)c1)C(=O)N[C@H](C(=O)OC(C)(C)C)c1ccccc1 [DAPT] | 200-225 | – | – | – | – | – | – | – | – | – | – | – | – | – | Fold Change of Gigasomes Produced vs. DMSO [1, 3]: 1.0-1.25; Fold Change of Gigasomes Produced vs. DMSO [1, 4]: 1.25-1.5; Number of Gigasomes Produced [1, 4]: 250-275
O=C(Nc1ccccc1-c1cn2c(CN3CCNCC3)csc2n1)c1cnc2ccccc2n1 [SRT 1720] | – | 1.0-1.25 | 150-175 | – | – | – | – | – | – | – | – | – | – | – | –
NC(=O)C1CCCc2c1[nH]c1ccc(Cl)cc21 (stereo not drawn) [Selisistat] | 150-175 | – | – | – | – | – | – | – | – | – | – | – | – | – | Fold Change of Gigasomes Produced vs. DMSO [1]: 1.25-1.5
CCCCc1ccc(NC(C)=O)c(C)c1 [SMIP004] | – | 1.0-1.25 | 150-175 | 35-40 | 30-35 | 30-35 | – | – | – | – | – | – | – | – | Fold Change of Gigasomes Produced vs. DMSO [1, 6]: 1.25-1.5; Number of Gigasomes Produced [1, 6]: 175-200; Fold Change of Gigasomes Produced vs. DMSO ([2]; dose 10 nM): >1.25; Number of Gigasomes Produced ([2]; dose 10 nM): >40; Fold Change of Gigasomes Produced vs. DMSO ([2]; dose 100 nM): 0.75-1.0; Fold Change of Gigasomes Produced vs. DMSO ([2]; dose 1000 nM): 0.75-1.0; Fold Change of Gigasomes Produced vs. DMSO ([2]; dose 10000 nM): 0.75-1.0
CCC(C)(C)C(=O)O[C@H]1C[C@@H](C)C=C2C=C[C@H](C)[C@H](CC[C@@H]3C[C@@H](O)CC(=O)O3)[C@H]21 [Simvastatin] | – | – | – | <35 | 35-45 | 45-55 | – | – | – | – | – | – | – | – | –
O=C(/C=C/c1ccc(/C=C/C(=O)Nc2ccc(C3=NCCN3)cc2)cc1)Nc1ccc(C2=NCCN2)cc1 [GW4869, reference compound] | – | – | – | 35-40 | 15-20 | 5-10 | – | – | – | – | – | – | – | – | Number of Gigasomes Produced ([2]; dose 10 nM): 30-35; Fold Change of Gigasomes Produced vs. DMSO ([2]; dose 100 nM): 0.75-1.0; Fold Change of Gigasomes Produced vs. DMSO ([2]; dose 1000 nM): 0.25-0.5; Fold Change of Gigasomes Produced vs. DMSO ([2]; dose 10000 nM): 0.25-0.5; downregulation of gigasome production ([2]; doses 10-10,000 nM, 24 h): dose-dependent downregulation
O=C(Oc1cccc(F)c1OC(=O)c1cccc(O)c1)c1cccc(O)c1 [WZB117, reference compound] | – | – | – | – | – | – | 1.0-1.25 | 120-135 | 0.75-1.0 | 105-120 | 0.75-1.0 | 105-120 | 0.25-0.5 | 35-50 | downregulation of gigasome production ([1]; cardiomyocytes): dose-dependent downregulation
O=C1CSC(c2ccccc2Cl)c2cc(Cl)ccc2N1 (stereo not drawn) [CGP37157, reference compound] | – | – | – | – | – | – | 0.75-1.0 | 120-135 | 0.75-1.0 | 105-120 | 0.25-0.5 | 50-75 | 0.25-0.5 | 50-75 | downregulation of gigasome production ([1]; cardiomyocytes): dose-dependent downregulation
Fc1ccc(CNc2ncnc3ccc(F)cc23)cc1 [Spautin-1] | – | – | – | – | – | – | 0.75-1.0 | 105-120 | 0.75-1.0 | 120-135 | 0.5-0.75 | 90-105 | 0.5-0.75 | 75-90 | –
COc1ccc(S(=O)(=O)N(CCO)c2ccccc2CN(C)C/C=C/c2ccc(Cl)cc2)cc1 [KN-93, reference compound] | 225-250 | 1.25-1.5 | 250-275 | – | – | – | – | – | – | – | – | – | – | – | Fold Change of Gigasomes Produced vs. DMSO [1, 3]: 1.25-1.5; Fold Change of Gigasomes Produced vs. DMSO [1, 6]: 1.5-1.75; Number of Gigasomes Produced [1, 6]: 250-275
